According to PubChem BioAssay AID248 (DTP/NCI, 2004):
Values joined by “and” are separate entries in the source; they are usually repeats but may differ in a detail not shown here. Equal entries are not always repeated. Toxic doses and inconclusive results are not listed.

Test system: L1210 leukemia ip in BDF1 mice, survival T/C
Experiment: NCI In Vivo Anticancer Drug Screen. Data for tumor model L1210 Leukemia (intraperitoneal) in B6D2F1 (BDF1) mice
Details: endpoint: mean survival time, higher = longer survival
Outline: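 Transplanted-tumor mice were given test agent; controls received vehicle only. Survival readings from the two groups were divided (treated over control).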

[1] = dose: 100.0 mg/kg/injection, schedule: Q04DX003 (ip), vehicle: saline
[2] = dose: 200.0 mg/kg/injection, schedule: Q04DX003 (ip), vehicle: saline
[3] = dose: 50.0 mg/kg/injection, schedule: Q01DX009 (ip), vehicle: saline with Tween-80
[4] = dose: 100.0 mg/kg/injection, schedule: Q01DX009 (ip), vehicle: Klucel (hydroxypropylcellulose) (HPC)
[5] = dose: 200.0 mg/kg/injection, schedule: Q01DX009 (ip), vehicle: Klucel (hydroxypropylcellulose) (HPC)
[6] = dose: 400.0 mg/kg/injection, schedule: Q01DX009 (ip), vehicle: Klucel (hydroxypropylcellulose) (HPC)
[7] = dose: 100.0 mg/kg/injection, schedule: Q01DX009 (ip), vehicle: saline with Tween-80
[8] = dose: 100.0 mg/kg/injection, schedule: Q04DX003 (ip), vehicle: saline with Tween-80
[9] = dose: 200.0 mg/kg/injection, schedule: Q01DX009 (ip), vehicle: saline with Tween-80
[10] = dose: 200.0 mg/kg/injection, schedule: Q04DX003 (ip), vehicle: saline with Tween-80
[11] = dose: 100.0 mg/kg/injection, schedule: Q04DX003 (ip), vehicle: Klucel (hydroxypropylcellulose) (HPC)
[12] = dose: 200.0 mg/kg/injection, schedule: Q04DX003 (ip), vehicle: Klucel (hydroxypropylcellulose) (HPC)
[13] = dose: 400.0 mg/kg/injection, schedule: Q04DX003 (ip), vehicle: Klucel (hydroxypropylcellulose) (HPC)

In the case of `CN=C(N)Nc1ccc(NC(=O)c2ccc(C(=O)Nc3ccc(NC(N)=NC)cc3)cc2)cc1`, the T/C (dose: 0.25 mg/kg/injection, schedule: Q01DX015 (ip), vehicle: methylcellulose (MC)) is reported as 113 % of control, the T/C (dose: 0.25 mg/kg/injection, schedule: Q01DX Z (ip), vehicle: carboxymethylcellulose (CMC)) is reported as 107 % of control and the T/C (dose: 0.5 mg/kg/injection, schedule: Q01DX015 (ip), vehicle: methylcellulose (MC)) is reported as 110 % of control. The T/C (dose: 0.5 mg/kg/injection, schedule: Q01DX Z (ip), vehicle: carboxymethylcellulose (CMC)) was 123 % of control, the T/C (dose: 1.0 mg/kg/injection, schedule: Q01DX Z (ip), vehicle: carboxymethylcellulose (CMC)) was 156 % of control and the T/C (dose: 2.0 mg/kg/injection, schedule: Q01DX015 (ip), vehicle: methylcellulose (MC)) was 236 % of control. For the same molecule, the T/C (dose: 2.0 mg/kg/injection, schedule: Q01DX Z (ip), vehicle: carboxymethylcellulose (CMC)) was 231 % of control and 254 % of control, the T/C (dose: 4.0 mg/kg/injection, schedule: Q01DX015 (ip), vehicle: methylcellulose (MC)) was 228 % of control and the T/C (dose: 4.0 mg/kg/injection, schedule: Q01DX Z (ip), vehicle: carboxymethylcellulose (CMC)) was 211 % of control. For the same molecule, the T/C (dose: 16.0 mg/kg/injection, schedule: Q01DX015 (ip), vehicle: methylcellulose (MC)) was 93 % of control, the T/C (dose: 17.0 mg/kg/injection, schedule: Q01DX Z (ip), vehicle: carboxymethylcellulose (CMC)) was 100 % of control and the T/C (dose: 30.0 mg/kg/injection, schedule: Q01DX001 (ip), vehicle: methylcellulose (MC)) was 163 % of control and 211 % of control. The T/C (dose: 62.0 mg/kg/injection, schedule: Q01DX Z (oral), vehicle: carboxymethylcellulose (CMC)) was 98 % of control, the T/C (dose: 125.0 mg/kg/injection, schedule: Q01DX Z (oral), vehicle: carboxymethylcellulose (CMC)) was 101 % of control and the T/C (dose: 250.0 mg/kg/injection, schedule: Q01DX Z (oral), vehicle: carboxymethylcellulose (CMC)) was 105 % of control. The T/C (dose: 500.0 mg/kg/injection, schedule: Q01DX Z (oral), vehicle: carboxymethylcellulose (CMC)) was 105 % of control.
In the case of `N=C(N)SCCCN`, the T/C (dose: 100.0 mg/kg/injection, schedule: Q01DX009 (ip), vehicle: saline) is reported as 108 % of control, the T/C [1] is reported as 101 % of control and the T/C [2] is reported as 100 % of control.
In the case of `O=C=Nc1cccc(S(=O)(=O)F)c1`, the T/C (dose: 50.0 mg/kg/injection, schedule: Q01DX001 (ip), vehicle: carboxymethylcellulose (CMC)) is reported as 105 % of control, the T/C (dose: 100.0 mg/kg/injection, schedule: Q01DX001 (ip), vehicle: carboxymethylcellulose (CMC)) is reported as 103 % of control and the T/C (dose: 200.0 mg/kg/injection, schedule: Q01DX001 (ip), vehicle: carboxymethylcellulose (CMC)) is reported as 105 % of control. For the same molecule, the T/C (dose: 400.0 mg/kg/injection, schedule: Q01DX001 (ip), vehicle: carboxymethylcellulose (CMC)) was 97 % of control.
`Nc1nc(N)nc(-c2ccccn2)n1` was tested, and the T/C (dose: 12.5 mg/kg/injection, schedule: Q01DX009 (ip), vehicle: saline with Tween-80) was 105 % of control, the T/C (dose: 25.0 mg/kg/injection, schedule: Q01DX009 (ip), vehicle: saline with Tween-80) was 92 % of control and the T/C [3] was 105 % of control.
`CCOC(=O)C1C(C)NC(C)C(C(=O)OCC)C1c1ccccc1Cl` (stereo not given) was tested, and the T/C [4] was 97 % of control, the T/C [5] was 98 % of control and the T/C [6] was 93 % of control.
`C=CCOC(=O)c1ccccc1N` was tested, and the T/C [7] was 98 % of control, the T/C [8] was 104 % of control and the T/C [9] was 98 % of control. For the same molecule, the T/C [10] was 101 % of control.
For `NC(=O)C(Cl)Cl`, the T/C [8] was 113 % of control, the T/C [10] was 103 % of control and the T/C (dose: 400.0 mg/kg/injection, schedule: Q04DX003 (ip), vehicle: saline with Tween-80) was 94 % of control.
For `CCOC(=O)c1cc(Br)cc(Br)c1N=NN(C)C`, the T/C [3] was 105 % of control, the T/C [7] was 113 % of control and the T/C [9] was 105 % of control.
In the case of `CCCCC[As](=O)(O)O`, the T/C (dose: 1.5 mg/kg/injection, schedule: Q01DX001 (ip), vehicle: carboxymethylcellulose (CMC)) is reported as 104 % of control, the T/C (dose: 3.0 mg/kg/injection, schedule: Q01DX001 (ip), vehicle: carboxymethylcellulose (CMC)) is reported as 102 % of control and the T/C (dose: 6.0 mg/kg/injection, schedule: Q01DX001 (ip), vehicle: carboxymethylcellulose (CMC)) is reported as 113 % of control.
`CN(C)c1ccc(C=NCCCO)cc1` was tested, and the T/C (dose: 100.0 mg/kg/injection, schedule: Q04DX002 (ip), vehicle: saline with Tween-80) was 92 % of control and the T/C (dose: 200.0 mg/kg/injection, schedule: Q04DX002 (ip), vehicle: saline with Tween-80) was 103 % of control.
With `Cc1ccc(N2C(=O)CSC2=S)cc1F` the T/C (dose: 100.0 mg/kg/injection, schedule: Q04DX002 (ip), vehicle: Klucel (hydroxypropylcellulose) (HPC)) was 96 % of control, the T/C (dose: 200.0 mg/kg/injection, schedule: Q04DX002 (ip), vehicle: Klucel (hydroxypropylcellulose) (HPC)) was 104 % of control and the T/C (dose: 400.0 mg/kg/injection, schedule: Q04DX002 (ip), vehicle: Klucel (hydroxypropylcellulose) (HPC)) was 101 % of control.
`COc1ccccc1NC(=O)NCc1cc(C)ccc1C` was tested, and the T/C [4] was 93 % of control, the T/C [5] was 88 % of control and the T/C [6] was 93 % of control.
With `O=S(=O)(O)N(O)S(=O)(=O)O` the T/C (dose: 100.0 mg/kg/injection, schedule: Q04DX002 (ip), vehicle: saline) was 97 % of control, the T/C [1] was 97 % of control and the T/C (dose: 200.0 mg/kg/injection, schedule: Q04DX002 (ip), vehicle: saline) was 97 % of control. For the same molecule, the T/C [2] was 90 % of control and the T/C (dose: 400.0 mg/kg/injection, schedule: Q04DX002 (ip), vehicle: saline) was 102 % of control.
In the case of `COc1cc2ccc(C(C)NCC(=O)O)cc2cc1OC` (stereo not given), the T/C [4] is reported as 100 % of control, the T/C [11] is reported as 93 % of control and the T/C [5] is reported as 100 % of control. The T/C [12] was 90 % of control, the T/C [6] was 94 % of control and the T/C [13] was 90 % of control.
In the case of `OCc1cc2ccccc2cc1F`, the T/C [3] is reported as 105 % of control, the T/C [7] is reported as 92 % of control and the T/C (dose: 100.0 mg/kg/injection, schedule: Q04DX003 (ip), vehicle: acetone) is reported as 100 % of control. The T/C [9] was 103 % of control and the T/C (dose: 200.0 mg/kg/injection, schedule: Q04DX003 (ip), vehicle: acetone) was 87 % of control.
In the case of `O=C(COc1cccc(Cl)c1)Nc1cccc(S(=O)(=O)O)c1` (tested in a mixture with another compound), the T/C (dose: 100.0 mg/kg/injection, schedule: Q01DX001 (ip), vehicle: Klucel (hydroxypropylcellulose) (HPC)) is reported as 100 % of control, the T/C (dose: 200.0 mg/kg/injection, schedule: Q01DX001 (ip), vehicle: Klucel (hydroxypropylcellulose) (HPC)) is reported as 99 % of control and the T/C (dose: 400.0 mg/kg/injection, schedule: Q01DX001 (ip), vehicle: Klucel (hydroxypropylcellulose) (HPC)) is reported as 87 % of control.
For `O=C1c2nc3ccccc3cc2CN1Cc1ccccc1`, the T/C (dose: 10.0 mg/kg/injection, schedule: Q04DX003 (ip), vehicle: alcohol) was 97 % of control, the T/C (dose: 20.0 mg/kg/injection, schedule: Q04DX003 (ip), vehicle: alcohol) was 96 % of control and the T/C (dose: 40.0 mg/kg/injection, schedule: Q04DX003 (ip), vehicle: alcohol) was 96 % of control. For the same molecule, the T/C (dose: 80.0 mg/kg/injection, schedule: Q04DX003 (ip), vehicle: alcohol) was 97 % of control and the T/C (dose: 160.0 mg/kg/injection, schedule: Q04DX003 (ip), vehicle: alcohol) was 92 % of control.
With `CC(=O)OCC1OC(O)C(NC(=O)C(F)(F)F)C(OC(C)=O)C1OC(C)=O` (stereo not given) the T/C (dose: 12.5 mg/kg/injection, schedule: Q04DX003 (ip), vehicle: saline) was 109 % of control and the T/C (dose: 25.0 mg/kg/injection, schedule: Q04DX003 (ip), vehicle: saline) was 96 % of control.
In the case of `CCCCC(CC)NC(=O)c1ccc(OC)cc1` (stereo not given), the T/C (dose: 12.5 mg/kg/injection, schedule: Q01DX009 (ip), vehicle: Klucel (hydroxypropylcellulose) (HPC)) is reported as 106 % of control, the T/C (dose: 25.0 mg/kg/injection, schedule: Q01DX009 (ip), vehicle: Klucel (hydroxypropylcellulose) (HPC)) is reported as 101 % of control and the T/C (dose: 25.0 mg/kg/injection, schedule: Q04DX003 (ip), vehicle: Klucel (hydroxypropylcellulose) (HPC)) is reported as 105 % of control. The T/C (dose: 50.0 mg/kg/injection, schedule: Q01DX009 (ip), vehicle: Klucel (hydroxypropylcellulose) (HPC)) was 95 % of control, the T/C (dose: 50.0 mg/kg/injection, schedule: Q04DX003 (ip), vehicle: Klucel (hydroxypropylcellulose) (HPC)) was 103 % of control and the T/C [4] was 101 % of control. For the same molecule, the T/C [11] was 100 % of control, the T/C [12] was 103 % of control and the T/C [13] was 100 % of control.
